Test results reported in PubChem BioAssay (NCI).
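Five concentrations, 48 hours, 96-well plates. GI50: concentration for 50% inhibition of growth. TGI: total growth inhibition.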

Key:
Experiment in all cases: DTP human tumour cell line panel, 48 h
[1] = system: OVCAR-4 ovarian
[2] = system: SK-MEL-28 melanoma
[3] = system: OVCAR-5 ovarian
[4] = system: K-562 leukemia
[5] = system: HS 578T breast
[6] = system: NCI-H226 lung
[7] = system: UACC-62 melanoma
[8] = system: U251 CNS
[9] = system: SF-539 CNS
[10] = system: SF-268 CNS
[11] = system: HOP-92 NSCLC
[12] = system: SW-620 colon
[13] = system: NCI-H522 lung
[14] = system: UO-31 renal
[15] = system: SNB-19 CNS
[16] = system: MDA-MB-231 breast
[17] = system: BT-549 breast
[18] = system: CCRF-CEM leukemia
[19] = system: A549 NSCLC
[20] = system: HCC-2998 colon
[21] = system: NCI-H460 lung
[22] = system: PC-3 prostate
[23] = system: SF-295 CNS
[24] = system: SK-OV-3 ovarian
[25] = system: HCT-116 colon
[26] = system: NCI/ADR-RES ovarian
[27] = system: HCT-15 colon
[28] = system: EKVX NSCLC
[29] = system: IGROV1 ovarian
[30] = system: OVCAR-8 ovarian
[31] = system: M14 melanoma
[32] = system: 786-0 renal
[33] = system: HT29 colon
[34] = system: KM12 colon
[35] = system: MALME-3M melanoma
[36] = system: MDA-MB-435
[37] = system: HOP-62 NSCLC
[38] = system: T-47D breast
[39] = system: SK-MEL-5 melanoma
[40] = system: TK-10 renal
[41] = system: NCI-H23 lung
[42] = system: A498 renal
[43] = system: SN12C renal
[44] = system: COLO 205 colon
[45] = system: RPMI-8226 leukemia
[46] = system: RXF 393 renal
[47] = system: SK-MEL-2 melanoma
[48] = system: HL-60(TB) leukemia
[49] = system: DU-145 prostate
[50] = system: MOLT-4 leukemia
[51] = system: SR leukemia
[52] = system: ACHN renal
[53] = system: CAKI-1 renal
[54] = system: MCF7 breast
[55] = system: UACC-257 melanoma
[56] = system: SNB-75 CNS
[57] = system: OVCAR-3 ovarian
[58] = system: LOX IMVI melanoma

CCOC(=O)c1c(CN2CCN(C)CC2)nc2ccc(Cl)cc2c1-c1ccccc1
GI50 [1]: 4.98 µM
TGI [1]: 17.4 µM
GI50 [2]: 1.74 µM
TGI [2]: 3.19 µM
GI50 [3]: 10.8 µM
TGI [3]: 25 µM
GI50 [4]: 1.86 µM
TGI [4]: 4.66 µM
GI50 [5]: 4.69 µM
TGI [5]: 23.1 µM
GI50 [6]: 15.6 µM
TGI [6]: 34.9 µM
GI50 [7]: 2.35 µM
TGI [7]: 7.76 µM
GI50 [8]: 8.26 µM
TGI [8]: 23 µM
GI50 [9]: 8.72 µM
TGI [9]: 21 µM
GI50 [10]: 10.2 µM
TGI [10]: 23.5 µM
GI50 [11]: 6.64 µM
TGI [11]: 22.3 µM
GI50 [12]: 9.35 µM
TGI [12]: 21.6 µM
GI50 [13]: 11.7 µM
TGI [13]: 25.3 µM
GI50 [14]: 5.98 µM
TGI [14]: 19.5 µM
GI50 [15]: 12.7 µM
TGI [15]: 25.6 µM
GI50 [16]: 7.16 µM
TGI [16]: 21.2 µM
GI50 [17]: 7.1 µM
TGI [17]: 20.8 µM
GI50 [18]: 7.17 µM
TGI [18]: 28.9 µM
GI50 [19]: 14.1 µM
TGI [19]: 28.5 µM
GI50 [20]: 1.86 µM
TGI [20]: 4.4 µM
GI50 [21]: 3.9 µM
TGI [21]: 13 µM
GI50 [22]: 8.83 µM
TGI [22]: 24.8 µM
GI50 [23]: 3.27 µM
TGI [23]: 9.95 µM
GI50 [24]: 12.8 µM
TGI [24]: 25.8 µM
GI50 [25]: 6.51 µM
TGI [25]: 19.1 µM
GI50 [26]: 5.35 µM
TGI [26]: 14.5 µM
GI50 [27]: 5.42 µM
TGI [27]: 20.9 µM
GI50 [28]: 8.02 µM
TGI [28]: 25 µM
GI50 [29]: 7.14 µM
TGI [29]: 19.9 µM
GI50 [30]: 15.2 µM
TGI [30]: 29.6 µM
GI50 [31]: 1.91 µM
TGI [31]: 3.78 µM
GI50 [32]: 7.05 µM
TGI [32]: 18.8 µM
GI50 [33]: 2.28 µM
TGI [33]: 6.16 µM
GI50 [34]: 6.76 µM
TGI [34]: 19.1 µM
GI50 [35]: 1.75 µM
TGI [35]: 4.09 µM
GI50 [36]: 2.71 µM
TGI [36]: 7.87 µM
GI50 [37]: 11.2 µM
TGI [37]: 25 µM
GI50 [38]: 9.41 µM
TGI [38]: 24.4 µM
GI50 [39]: 1.72 µM
TGI [39]: 3.18 µM
GI50 [40]: 5.11 µM
TGI [40]: 13.6 µM
GI50 [41]: 14.5 µM
TGI [41]: 30.1 µM
GI50 [42]: 4.75 µM
TGI [42]: 17.2 µM
GI50 [43]: 11.6 µM
TGI [43]: 25.9 µM
GI50 [44]: 1.71 µM
TGI [44]: 3.57 µM
GI50 [45]: 2.98 µM
TGI [45]: 12.7 µM
GI50 [46]: 5.33 µM
TGI [46]: 15.4 µM
GI50 [47]: 12.9 µM
TGI [47]: 26.2 µM
GI50 [48]: 2.2 µM
TGI [48]: 6.22 µM
GI50 [49]: 13.7 µM
TGI [49]: 26.7 µM
GI50 [50]: 2.92 µM
TGI [50]: 12.9 µM
GI50 [51]: 1.93 µM
TGI [51]: 4.78 µM
GI50 [52]: 12.2 µM
TGI [52]: 25.5 µM
GI50 [53]: 2.95 µM
TGI [53]: 13.6 µM
GI50 [54]: 4.15 µM
TGI [54]: 16.6 µM
GI50 [55]: 2.03 µM
TGI [55]: 3.98 µM
GI50 [56]: 2.15 µM
TGI [56]: 8.95 µM
GI50 [57]: 6.5 µM
TGI [57]: 19.6 µM
GI50 [58]: 4.52 µM
TGI [58]: 16.1 µM

C=CC(=O)Nc1cc2c(Nc3ccc(F)c(Cl)c3)ncnc2cc1C#CC(C)(C)N1CCN(C)CC1
GI50 [1]: 1.32 µM
TGI [1]: 2.86 µM
GI50 [2]: 3.1 µM
TGI [2]: 5.67 µM
GI50 [3]: 1.04 µM
TGI [3]: 6.17 µM
GI50 [4]: 1.05 µM
TGI [4]: 6.59 µM
GI50 [5]: 2.28 µM
TGI [5]: 8.47 µM
GI50 [6]: 4.06 µM
TGI [6]: 6.04 µM
GI50 [7]: 2.94 µM
TGI [7]: 5.58 µM
GI50 [8]: 2.66 µM
TGI [8]: 5.48 µM
GI50 [9]: 1.48 µM
TGI [9]: 2.99 µM
GI50 [10]: 1.84 µM
TGI [10]: 5.51 µM
GI50 [11]: 0.29 µM
TGI [11]: 1.78 µM
GI50 [12]: 2 µM
TGI [12]: 4.61 µM
GI50 [13]: 0.456 µM
TGI [13]: 2.28 µM
GI50 [14]: 0.244 µM
TGI [14]: 4.4 µM
GI50 [15]: 3.58 µM
TGI [15]: 5.05 µM
GI50 [16]: 1.27 µM
TGI [16]: 2.73 µM
GI50 [17]: 1.6 µM
TGI [17]: 3.47 µM
GI50 [18]: 1.24 µM
TGI [18]: 5.08 µM
GI50 [19]: 2.64 µM
GI50 [20]: 1.83 µM
TGI [20]: 4.25 µM
GI50 [21]: 2.91 µM
TGI [21]: 6.69 µM
GI50 [22]: 1.93 µM
TGI [22]: 5.31 µM
GI50 [23]: 2.94 µM
TGI [23]: 6.62 µM
GI50 [24]: 0.953 µM
TGI [24]: 4.59 µM
GI50 [25]: 1.52 µM
TGI [25]: 3.01 µM
GI50 [26]: 2.46 µM
TGI [26]: 7.65 µM
GI50 [27]: 1.68 µM
TGI [27]: 5.11 µM
GI50 [28]: 0.246 µM
TGI [28]: 4.39 µM
GI50 [29]: 0.175 µM
TGI [29]: 1.4 µM
GI50 [30]: 1.85 µM
TGI [30]: 5.35 µM
GI50 [31]: 2.56 µM
TGI [31]: 5.71 µM
GI50 [32]: 1.31 µM
TGI [32]: 2.82 µM
GI50 [33]: 1.56 µM
TGI [33]: 4.09 µM
GI50 [34]: 2.36 µM
TGI [34]: 5.75 µM
GI50 [35]: 1.49 µM
TGI [35]: 5.05 µM
GI50 [36]: 1.5 µM
TGI [36]: 3.9 µM
GI50 [37]: 3.53 µM
TGI [37]: 5.9 µM
GI50 [38]: 0.752 µM
TGI [38]: 5.32 µM
GI50 [39]: 4.69 µM
TGI [39]: 7.42 µM
GI50 [40]: 0.0522 µM
TGI [40]: 2.03 µM
GI50 [41]: 1.72 µM
TGI [41]: 3.78 µM
GI50 [42]: 1.21 µM
TGI [42]: 3.94 µM
GI50 [43]: 0.572 µM
TGI [43]: 2.51 µM
GI50 [44]: 2.09 µM
TGI [44]: 5.43 µM
GI50 [45]: 1.77 µM
TGI [45]: 5.17 µM
GI50 [46]: 0.837 µM
TGI [46]: 2.15 µM
GI50 [47]: 2.98 µM
TGI [47]: 5.54 µM
GI50 [48]: 1.88 µM
TGI [48]: 5.08 µM
GI50 [49]: 1.11 µM
TGI [49]: 4.86 µM
GI50 [50]: 1.05 µM
TGI [50]: 5.16 µM
GI50 [51]: 0.746 µM
TGI [51]: 5.61 µM
GI50 [52]: 0.0779 µM
TGI [52]: 4.26 µM
GI50 [53]: 0.973 µM
TGI [53]: 4.05 µM
GI50 [54]: 0.995 µM
TGI [54]: 3.17 µM
GI50 [55]: 3.96 µM
TGI [55]: 5.56 µM
GI50 [56]: 1.16 µM
TGI [56]: 3.86 µM
GI50 [57]: 1.13 µM
TGI [57]: 2.85 µM
GI50 [58]: 1.27 µM
TGI [58]: 2.65 µM
